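How tested: cells in 96-well plates exposed to compound for 48 hours at five concentrations. At the GI50, growth is halved.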 Calls of active or inactive are those of the source. Rule as the data show it: active = GI50 up to about 1.1 µM and inactive = higher.
Legend:
Test in all cases: NCI anticancer screen, dose series, 48 h
[1] = tested on: HCT-15
[2] = tested on: HT-29
[3] = tested on: A549
[4] = tested on: NCI-H23
[5] = tested on: TK-10
[6] = tested on: NCI-H226
[7] = tested on: OVCAR-3
[8] = tested on: EKVX
[9] = tested on: NCI/ADR-RES
[10] = tested on: RXF 393
[11] = tested on: OVCAR-8
[12] = tested on: MDA-MB-231
[13] = tested on: SNB-19
[14] = tested on: SN12C
[15] = tested on: ACHN
[16] = tested on: SNB-75
[17] = tested on: KM12
[18] = tested on: SF-295
[19] = tested on: MDA-MB-435
[20] = tested on: MDA-N
[21] = tested on: SK-MEL-5
[22] = tested on: IGROV-1
[23] = tested on: PC-3
[24] = tested on: HOP-92
[25] = tested on: SF-268
[26] = tested on: U-251
[27] = tested on: CAKI-1
[28] = tested on: SK-MEL-28
[29] = tested on: HCT-116
[30] = tested on: COLO 205
[31] = tested on: DU-145
[32] = tested on: OVCAR-4
[33] = tested on: M14
[34] = tested on: SF-539
[35] = tested on: SW-620
[36] = tested on: OVCAR-5
[37] = tested on: HCC 2998
[38] = tested on: T47D
[39] = tested on: NCI-H460
[40] = tested on: HOP-62
[41] = tested on: K562
[42] = tested on: A498
[43] = tested on: SK-MEL-2
[44] = tested on: NCI-H522
[45] = tested on: UO-31
[46] = tested on: Malme-3M
[47] = tested on: HL-60
[48] = tested on: CCRF-CEM
[49] = tested on: Hs-578T
[50] = tested on: MCF7
[51] = tested on: MOLT-4
[52] = tested on: RPMI-8226
[53] = tested on: LOX IMVI
[54] = tested on: 786-0
[55] = tested on: UACC-257
[56] = tested on: SR
[57] = tested on: SK-OV-3
[58] = tested on: UACC-62

## COC(=O)C1ON2C(C1C(=O)OC)C(C)(C)N(O)C2(C)C (stereo not given)
[1]
  GI50: > 10 µM
[2]
  GI50: > 10 µM (inactive)
[3]
  GI50: > 10 µM (inactive)
[4]
  GI50: > 10 µM (inactive)
[5]
  GI50: > 10 µM (inactive)
[6]
  GI50: > 10 µM (inactive)
[7]
  GI50: > 10 µM (inactive)
[8]
  GI50: > 10 µM (inactive)
[9]
  GI50: > 10 µM (inactive)
[10]
  GI50: > 10 µM (inactive)
[11]
  GI50: > 10 µM (inactive)
[12]
  GI50: > 10 µM (inactive)
[13]
  GI50: > 10 µM (inactive)
[14]
  GI50: > 10 µM (inactive)
[15]
  GI50: > 10 µM (inactive)
[16]
  GI50: > 10 µM (inactive)
[17]
  GI50: > 10 µM (inactive)
[18]
  GI50: > 10 µM (inactive)
[19]
  GI50: > 10 µM (inactive)
[20]
  GI50: > 10 µM (inactive)
[21]
  GI50: > 10 µM (inactive)
[22]
  GI50: > 10 µM (inactive)
[23]
  GI50: > 10 µM (inactive)
[24]
  GI50: > 10 µM (inactive)
[25]
  GI50: > 10 µM (inactive)
[26]
  GI50: > 10 µM (inactive)
[27]
  GI50: > 10 µM (inactive)
[28]
  GI50: > 10 µM (inactive)
[29]
  GI50: > 10 µM (inactive)
[30]
  GI50: > 10 µM (inactive)
[31]
  GI50: > 10 µM (inactive)
[32]
  GI50: > 10 µM (inactive)
[33]
  GI50: > 10 µM (inactive)
[34]
  GI50: > 10 µM (inactive)
[35]
  GI50: > 10 µM (inactive)
[36]
  GI50: > 10 µM (inactive)

## COC(=O)CCC(=O)c1ccc2c(c1)CCC2
[1]
  GI50: > 100 µM
[2]
  GI50: > 100 µM (inactive)
[37]
  GI50: > 100 µM (inactive)
[38]
  GI50: > 100 µM (inactive)
[3]
  GI50: > 100 µM (inactive)
[4]
  GI50: > 100 µM (inactive)
[5]
  GI50: > 100 µM (inactive)
[39]
  GI50: > 100 µM (inactive)
[40]
  GI50: > 100 µM (inactive)
[41]
  GI50: > 100 µM (inactive)
[42]
  GI50: > 100 µM (inactive)
[43]
  GI50: > 100 µM (inactive)
[44]
  GI50: > 100 µM (inactive)
[7]
  GI50: > 100 µM (inactive)
[45]
  GI50: > 100 µM (inactive)
[8]
  GI50: > 100 µM (inactive)
[9]
  GI50: > 100 µM (inactive)
[46]
  GI50: > 100 µM (inactive)
[10]
  GI50: > 100 µM (inactive)
[47]
  GI50: > 100 µM (inactive)
[11]
  GI50: > 100 µM (inactive)
[48]
  GI50: > 100 µM (inactive)
[12]
  GI50: > 100 µM (inactive)
[49]
  GI50: > 100 µM (inactive)
[13]
  GI50: > 100 µM (inactive)
[50]
  GI50: > 100 µM (inactive)
[15]
  GI50: > 100 µM (inactive)
[16]
  GI50: > 100 µM (inactive)
[51]
  GI50: > 100 µM (inactive)
[18]
  GI50: > 100 µM (inactive)
[52]
  GI50: > 100 µM (inactive)
[19]
  GI50: > 100 µM (inactive)
[20]
  GI50: > 100 µM (inactive)
[21]
  GI50: > 100 µM (inactive)
[22]
  GI50: > 100 µM (inactive)
[23]
  GI50: > 100 µM (inactive)
[24]
  GI50: > 100 µM (inactive)
[53]
  GI50: > 100 µM (inactive)
[25]
  GI50: > 100 µM (inactive)
[54]
  GI50: > 100 µM (inactive)
[26]
  GI50: > 100 µM (inactive)
[27]
  GI50: > 100 µM (inactive)
[28]
  GI50: > 100 µM (inactive)
[29]
  GI50: > 100 µM (inactive)
[55]
  GI50: > 100 µM (inactive)
[31]
  GI50: > 100 µM (inactive)
[32]
  GI50: > 100 µM (inactive)
[56]
  GI50: > 100 µM (inactive)
[33]
  GI50: > 100 µM (inactive)
[34]
  GI50: > 100 µM (inactive)
[35]
  GI50: > 100 µM (inactive)
[36]
  GI50: > 100 µM (inactive)
[57]
  GI50: > 100 µM (inactive)

## CCOC(=O)N1c2ccccc2C(C)=CC(C)C1C (stereo not given)
[1]
  GI50: 5.36 µM
[2]
  GI50: 10.7 µM (inactive)
[37]
  GI50: 45.6 µM (inactive)
[38]
  GI50: 52.1 µM (inactive)
[3]
  GI50: 22.6 µM (inactive)
[4]
  GI50: 22.8 µM (inactive)
[5]
  GI50: 4.55 µM (inactive)
[39]
  GI50: 21.4 µM (inactive)
[40]
  GI50: 37.6 µM (inactive)
[41]
  GI50: 18.9 µM (inactive)
[42]
  GI50: 27 µM (inactive)
[43]
  GI50: 32.7 µM (inactive)
[6]
  GI50: 22.8 µM (inactive)
[44]
  GI50: 18.7 µM (inactive)
[7]
  GI50: 16.7 µM (inactive)
[45]
  GI50: 55.7 µM (inactive)
[8]
  GI50: 35.3 µM (inactive)
[9]
  GI50: 25.8 µM (inactive)
[46]
  GI50: 33.9 µM (inactive)
[10]
  GI50: 11.3 µM (inactive)
[47]
  GI50: 27.2 µM (inactive)
[11]
  GI50: 17.6 µM (inactive)
[48]
  GI50: 21.9 µM (inactive)
[12]
  GI50: 22.9 µM (inactive)
[49]
  GI50: 35.6 µM (inactive)
[13]
  GI50: 42.8 µM (inactive)
[14]
  GI50: 40.7 µM (inactive)
[50]
  GI50: 10.3 µM (inactive)
[15]
  GI50: 49.7 µM (inactive)
[16]
  GI50: 19.1 µM (inactive)
[51]
  GI50: 39.4 µM (inactive)
[17]
  GI50: 9.82 µM (inactive)
[18]
  GI50: 23.9 µM (inactive)
[52]
  GI50: 56.8 µM (inactive)
[19]
  GI50: 3.37 µM (inactive)
[20]
  GI50: 1.32 µM (inactive)
[21]
  GI50: 12.5 µM (inactive)
[22]
  GI50: 44 µM (inactive)
[23]
  GI50: 55.8 µM (inactive)
[58]
  GI50: 32.6 µM (inactive)
[53]
  GI50: 7.53 µM (inactive)
[25]
  GI50: 38 µM (inactive)
[54]
  GI50: 20.6 µM (inactive)
[27]
  GI50: 16.2 µM (inactive)
[28]
  GI50: 35.9 µM (inactive)
[29]
  GI50: 6.73 µM (inactive)
[55]
  GI50: 12.7 µM (inactive)
[30]
  GI50: 29.2 µM (inactive)
[31]
  GI50: 38.3 µM (inactive)
[32]
  GI50: 60.5 µM (inactive)
[56]
  GI50: 5.09 µM (inactive)
[33]
  GI50: 13.6 µM (inactive)
[34]
  GI50: 20.4 µM (inactive)
[35]
  GI50: 29.4 µM (inactive)
[36]
  GI50: 40.1 µM (inactive)
[57]
  GI50: 22.4 µM (inactive)
